Laboratory results taken from patent US20100120871A1, “HAIR CARE COMPOSITIONS, METHODS, AND ARTICLES OF COMMERCE THAT CAN INCREASE THE APPEARANCE OF THICKER AND FULLER HAIR” (priority 2008, published 2010).

Tested on: primary human dermal papilla cells
Test: Survival of metabolically stressed primary human dermal papilla cells (ATP, Cell Titer Glo)
Type: cell-based
Set-up: unit not given here
Conditions: DP cells metabolically stressed 48 hours in reduced media, ATP by Cell Titer Glo, vehicle = 0
Protocol: Primary human dermal papilla cells were metabolically stressed for 48 hours in reduced standard tissue culture media. During this period of stress the cells were treated with the mixtures below dosed from a DMSO vehicle. After 48 hours the metabolic activity of the cells was measured by the amount of ATP using the Cell Titer Glo™ kit (Promega).
The dermal papilla, in normal human hair, is the control center for hair diameter. Increasing survival of dermal papilla cells in situ leads to increased hair diameter. Accordingly, an increase in survival of dermal papilla cells correlates with an increase in hair diameter.

Work on OCc1c[nH]c2ccccc12 [Example I3C, Indole-3-Carbinol] yielded a Survival (Table 2A) of −0.16 and a Survival (Table 2B) of 0.08.

Work on OCCc1c[nH]c2ccccc12 [HI, Tryptophol] yielded a Survival (Table 3) of 1.72.

With O=C(O)Cc1c[nH]c2ccccc12 [IAA, indole-3-acetic acid] the Survival (Table 1A) was −0.17 and the Survival (Table 1B) was −0.18.

Compound NC(=O)c1cccnc1 [Niacinamide, niacinamide] has a Survival (Table 1A) of −0.02, a Survival (Table 1B) of −0.02 and a Survival (Table 2A) of −0.16. For the same compound, the Survival (Table 2B) was 0.1.

For CC(C)(CO)[C@@H](O)C(=O)NCCCO [Panthenol, panthenol], the Survival (Table 1A) was −0.17, the Survival (Table 1B) was −0.17 and the Survival (Table 2A) was −0.01. It also gave a Survival (Table 2B) of −0.13.
